Source: patent US20080015224A1, “Nitroxide superoxide dismutase mimetics to treat extracellular superoxide dismutase deficiencies” (priority 2006, published 2008)
“Also recorded” adds a separate entry of the source.

Assays:
[1] = test system: O2−. generated by xanthine plus xanthine oxidase; test: Inhibition of O2−. generated by xanthine-xanthine oxidase in vitro (SOD mimetic activity, lucigenin chemiluminescence); format: biochemical; conditions: for Maximum inhibition, %: O2−. generated by xanthine-xanthine oxidase in vitro, means ± SE, 5 studies; for O2−. generated by a xanthine-xanthine oxidase reaction extinguished: tested in PBS at 10^−4 M
Description: The SOD activities of Ns were evaluated in vitro for their efficacy in dampening O2^−. generated by xanthine (25 μmol/l) plus xanthine oxidase (9 IU/ml). Their lipid solubility was assessed by shaking the Ns in a 50:50 mixture of PBS (Ambion, Austin, Tex.) and chloroform (CHCl3; EM Science, Gibbstown, N.J.), taking an aliquot of the PBS phase, evaporating the CHCl3phase to dryness, reconstituting it in PBS, and assessing the SOD activities in the two solutions. O2^−. was assessed by chemiluminescence with 5 μM lucigenin (AutoLumatPlus LB 953; EG&G, Berthold, Germany). The reduction in the stable peak value for chemiluminescence for each N, relative to vehicle, defined the SOD mimetic activity.
SOD activity by the nitroxides was assessed in vitro (Table 1). […] The ratio of the activity that partitioned into CHCl3 compared with PBS was examined.

[2] = test system: spontaneously hypertensive rat (SHR); test: Acute antihypertensive response (MAP, HR) to graded intravenous doses in anesthetized SHR; format: in vivo; conditions: for acute change in MAP and HR: graded intravenous doses (nitroxides 17-270 μmol/kg; SOD 34-540 U/kg)
Description: Experiments were approved by the Georgetown University Animal Care and Use Committee. Male SHR weighing 250-350 g (Taconic, Germantown, N.Y.) were anesthetized with thiobutabarbital (Inactin; Sigma, St. Louis, Mo.) (10 mg/100 g) after halothane (Halocarbon Laboratories, River Edge, N.J.) induction. Rats received 0.9% NaCl at 2 ml/h IV up to the time of receiving drugs to maintain euvolemia. A femoral artery was cannulated with polyethelene (PE)-50 tubing connected to a digital blood pressure analyzer (Micro-Med, Louisville, Ky.). Animals were equilibrated for 45 min. Thereafter, a nitroxide (17 μmol/kg) was infused intravenously over 10 s. The mean arterial pressure (MAP) and heart rate (HR) were recorded over the first 5 min and at 10 and 15 min. This was followed by doses of 54, 72, 174, and 270 μmol/kg under similar conditions. The same protocol was followed with each nitroxide: T, 4-oxo-tempo (OT), 4-amino-tempo (AT), 3-carboxy-peroxyl (3-CTPY) (Aldrich, Milwaukee, Wis.), 3-carbomyl-proxyl (3-CP) (Sigma), and 4-trimethylammonium-2,2,6,6,-tetramethylpiperidine-1-oxyl iodide (CAT-1) (Molecular Probes, Eugene, Oreg.) (FIG. 3). Doses of bovine Cu/Zn SOD (MW 32,500; Oxis Research, Portland, Oreg.) were selected that had equivalent SOD mimetic activity in vitro to the doses of T used for intravenous studies: 34, 110, 140, 260, 350, and 540 U/kg. SOD injection followed a similar protocol to the nitroxides and was compared with vehicle-injected rats. Additional rats received injections of previously boiled SOD as a further control group. Six rats were studied in each group.
The mean±SE changes in MAP and HR were calculated from the individual dose-response relations. The responsiveness was the maximum effect, and the sensitivity was the expected dose for ED50. Data were analyzed by ANOVA with post hoc testing by the Dunnett test, where appropriate. Statistical significance was taken as P<0.05.

[3] = test system: O2−. generated by xanthine plus xanthine oxidase; test: Inhibition of O2−. generated by xanthine-xanthine oxidase in vitro (SOD mimetic activity, lucigenin chemiluminescence); format: biochemical; conditions: means ± SE
[4] = test system: mesenteric resistance arteries (MRAs) from EC-SOD −/− and +/+ mice; test: Contraction of isolated mesenteric resistance arteries (myograph); conditions: vessels from EC-SOD −/− mice; bath addition, 20 min; tempol 10^−4 M, PEG-SOD 100 units·ml^−1, catalase 300 units·ml^−1
Description: FIG. 19: Responses of mouse isolated mesenteric resistance vessles to endothelin-1: comparison of EC-SOD +/+ with −/−. (A) Contraction to endothelin-1, (B) Superoxide production with endothelin-1. Mean±SEM values (n=6-8 per group). Response to endothelin-1 in vessels incubated for 20 min with vehicle, tempol (10^−4 M), PEG-SOD (100 units·ml^−1), and catalase (300 units·ml^−1). Compared to vehicle, ***, p<0.005.
(§1) Reactive oxygen spice (ROS) and endothelin-1 (ET-1) contribute to angiotensin-induced hypertension. We used isolated mesenteric resistance arteries (MRAs) from EC-SOD knockout (−/−) mice (n=10) and EC-SOD wild type (+/+) mice (n=10), as a model to investigate the hypothesis that microvascular ET-1 and superoxide anion (O2.^−) interact to enhance contractility. Tension and O2.^− were quantitated in real time in dihydroethidium (DHE)-loaded MRAs in a myograph equipped with a dual-emission photon detection fluorescence system to measure ethidium (Eth): DHE ratio (E/D) as a direct readout of O2.^− activity. […] PEG-SOD normalized augmented ET-1 contraction (64±4% vs 71±3%; p=ns) and prevent an increase in E/D ratio in MRAs from −/− (0.6±0.5 vs 0.5±0.8, p=ns). In summary, ET-1 generates microvascular O2.^− that enhances its vasoconstrictive action.

[5] = test system: mesenteric resistance arteries (MRAs) from EC-SOD −/− and +/+ mice; test: Superoxide as ethidium:DHE ratio (E/D) in dihydroethidium-loaded mesenteric resistance arteries; conditions: dihydroethidium-loaded vessels from EC-SOD −/− mice; tempol 10^−4 M, PEG-SOD 100 units·ml^−1, catalase 300 units·ml^−1
Text: as §1
A current study contrasts the responses to endothelin-1 (ET-1) in mesenteric resistance vessels from EC-SOD (−/−) and (+/+) mice. […] Parallel studies of vascular superoxide in dihydroethidium-loaded vessels show enhanced conversion to ethidium, indicating enhanced superoxide formation, in vessels from EC-SOD −/−mice. […] We conclude that in the model system of SOD deficiency caused by gene deletion of EC-SOD in the mouse, tempol can correct enhanced contractions and enhanced oxidative stress. It is thereby envisioned as being effective in preventing hypertension and cardiovascular disease.

[6] = test system: cremasteric microvessels in the anesthetized mouse; test: In vivo EDRF (acetylcholine-induced vasodilation) responses of cremasteric microvessels; conditions: 10^−4 M tempol in superfusate; EC-SOD −/− mice and mice infused with Ang II 400 ng·kg^−1·min^−1 sc × 12 days
Description: FIG. 18: In vivo EDRF responses of cremasteric vessels are impaired by EC-SOD knockout or prolonged angiotensin II infusion but are restored by superfusion of tempol. Mean±SEM (n=c6 per group). Ang II infusion at 400 ng·kg^−1·min^−1 sc×12 days. T, 10^−4 M tempol in superfusate. Basal diameter 39±0.4 μm (similar in each group). Compared to EC-SOD +/+; *, p<0.05. Compared to vehicle infusion: †, p<0.05. All effects of tempol, p<0.005.
Our current studies have shown that the SOD mimetic drug tempol, when superfused over cremasteric microvessels in the anesthetized mouse, increases that acetylcholine-induced vasodilation response. This effect of acetylcholine is reduced in the EC-SOD (−/−) mouse and in normal and EC-SOD (−/−) mice infused for 12 days with Ang II which causes oxidative stress that bioinactivates nitric oxide which is a mediator of this response. […] This is important since acetylcholine-induced vasodilation is a test of endothelium-dependent relaxation (EDR). Defects in EDR are related to oxidative inactivation of nitric oxide and underlie many CVD risk factors. Thus defects in EDR could be the focus for abnormal vascular responses and increased CVD events in subjects with the R213G SNIP of EC-SOD.

[7] = measured previously in the literature; cited from earlier work
cell membranes = conditions: cited from earlier work

What does the source list for `CC1(C)CC(C(=O)O)C(C)(C)N1[O]` (centres unmarked) [Compound 3-CTPY, 3-carboxy-peroxyl]?
Maximum inhibition, % [1]: 15 ± 3 %; O2−. generated by a xanthine-xanthine oxidase reaction extinguished [1]: significantly lower fraction; acute change in MAP and HR [2]: ineffective; also recorded: did not; ED50, μmol/kg [3]: ∞†

What does the source list for `CC1(C)CC(O)CC(C)(C)N1[O]` [T, 4-hydroxy-2,2,6,6-tetramethyl-1 piperidinyloxy]?
Maximum inhibition, % [1]: 92 ± 1%; O2−. generated by a xanthine-xanthine oxidase reaction extinguished [1]: 92%; maximal reduction in MAP (comparison between compounds) ([2]; graded intravenous doses): greater maximal fall in MAP with T than CAT-1; also recorded: greatest reductions in MAP; time to maximum reductions in MAP and HR ([2]; graded intravenous doses): ≤ 1 min; acute change in MAP and HR [2]: decreased MAP and HR acutely; effect on enhanced contractions to ET-1 [4]: normalized; effect on enhanced superoxide formation with ET-1 [5]: normalized; acetylcholine-induced vasodilation (EDRF) response [6]: restored to normal; redox midpoint potential E1/2 [7]: 800 mV; permeation of cells (cell membranes): permeates cell membranes freely
